Data on three molecules can be found in ChEMBL document CHEMBL3862020, “A fluorescent analogue of tauroursodeoxycholic acid reduces ER stress and is cytoprotective” (Bioorg Med Chem Lett, 2016).

For data set [1], the system named is Huh-7. Put plainly: Cytoprotective activity against tunicamycin-induced ER stress in human HuH7 cells assessed as inhibition of BIP/GRP78 mRNA levels at 1mM after 6 hrs. Type of data set: functional, cell-based.
Data set [2] deals with Huh-7. Description: Cytoprotective activity against tunicamycin-induced ER stress in human HuH7 cells assessed as increase in XBPu mRNA levels after 6 hrs. Type of data set: functional, cell-based.
In data set [3] the test system is Huh-7. Description: Cytoprotective activity against DCA-induced ER stress in human HuH7 cells assessed as inhibition of XBPs mRNA levels after 6 hrs. Format: functional, cell-based.
Data set [4] deals with Huh-7. Put plainly: Cytoprotective activity against tunicamycin-induced ER stress in human HuH7 cells assessed as inhibition of XBPs mRNA levels after 6 hrs. Type of data set: functional, cell-based.
Data set [5] has as its system Huh-7. Put plainly: Cytoprotective activity against tunicamycin-induced ER stress in human HuH7 cells assessed as reduction in XBPs/XBPu ratio after 6 hrs. Type of data set: functional, cell-based.
Data set [6] deals with Huh-7. Description: Cytoprotective activity against tunicamycin-induced ER stress in human HuH7 cells assessed as inhibition of BIP/GRP78 mRNA levels after 6 hrs. Format: functional, cell-based.
The test system of data set [7] is Huh-7. Description: Cytoprotective activity against DCA-induced cell death in human HuH7 cells assessed as increase in cell viability at 1 mM preincubated with cells followed by DCA addition measured after 24 hrs by MTT/INCELL assay. Format: functional, cell-based.
Data set [8] is described as follows: Cytotoxicity against HEK293 cells assessed as reduction in cell viability by MTT assay. Format: toxicity, cell-based. The conditions noted are these: human. (In general: Tetrazolium assays rely on reduction of a dye to a coloured formazan, in cell work by metabolically active cells.)
Data set [9] in a line: Cytotoxicity against human HuH7 cells assessed as reduction in cell viability by MTT assay. Type of data set: toxicity, cell-based. The conditions noted are these: huh-7.
Data set [10] deals with Huh-7. Put plainly: Cytoprotective activity against DCA-induced ER stress in human HuH7 cells assessed as increase in XBPu mRNA levels after 6 hrs. Format: functional, cell-based.
The test system of data set [11] is Huh-7. Description: Cytoprotective activity against tunicamycin-induced ER stress in human HuH7 cells assessed as inhibition of CHOP mRNA levels after 6 hrs. Type of data set: functional, cell-based.
For data set [12], the system named is Huh-7. Put plainly: Cytoprotective activity against DCA-induced cell death in human HuH7 cells assessed as increase in cell viability at 500 uM preincubated with cells followed by DCA addition measured after 24 hrs by MTT/INCELL assay. Format: functional, cell-based.
Data set [13] concerns Huh-7. Description: Cytoprotective activity against DCA-induced ER stress in human HuH7 cells assessed as inhibition of […] mRNA levels after 6 hrs. Format: functional, cell-based.

Calls of active or inactive are those of the source. The calls are words filed in the database; no cut-off is given here.

`C[C@H](CCC(=O)O)[C@H]1CC[C@H]2[C@@H]3[C@@H](O)C[C@@H]4C[C@H](O)CC[C@]4(C)[C@H]3CC[C@]12C`: the inhibition result in the data set on Huh-7 [1] was “Active”.
In the case of `C[C@H](CCC(=O)NCCS(=O)(=O)O)[C@H]1CC[C@H]2[C@@H]3[C@@H](O)C[C@@H]4C[C@H](O)CC[C@]4(C)[C@H]3CC[C@]12C` [TAURURSODIOL], the outcome in the data set on Huh-7 [2], in the data set with Huh-7 [5], in the data set with Huh-7 [7] and with Huh-7 [10] was Active. For the same molecule, the inhibition result with Huh-7 [3], in the data set with Huh-7 [4], with Huh-7 [6] and with Huh-7 [11] was “Active” each time. Moreover, the Activity result in data set [8] and in data set [9] was “Non-Toxic” each time.
Consider `C[C@H](CCC(=O)NCCS(=O)(=O)O)[C@H]1CC[C@H]2[C@@H]3[C@@H](O)C[C@@H]4C[C@H](NS(=O)(=O)c5cccc6c(N(C)C)cccc56)CCC4(C)[C@H]3CC[C@]12C` (single isomer, unassigned), for which the result in the data set with Huh-7 [2], in the data set with Huh-7 [5], in the data set with Huh-7 [12] and in the data set with Huh-7 [10] was Active. Besides, the inhibition result in the data set with Huh-7 [3], with Huh-7 [4], in the data set on Huh-7 [6], in the data set with Huh-7 [13] and in the data set on Huh-7 [11] was “Active” each time. The Activity result in data set [8] and in data set [9] was “Non-Toxic” in each case.
